ChEMBL document CHEMBL2074485, “Identification of thyroid hormone transporters in humans: different molecules are involved in a tissue-specific manner” (Endocrinology, 2001)
Each block holds one molecule with its values, some of them ahead of it.

Experiments:
[1] = target: T1, Solute carrier organic anion transporter family member 4A1 (Homo sapiens, UniProt Q96BD0); test: (§1) TP_TRANSPORTER: uptake in Xenopus laevis oocytes; assay type: functional, cell-based; details: oocyte
T1 sequence (Q96BD0 whole entry): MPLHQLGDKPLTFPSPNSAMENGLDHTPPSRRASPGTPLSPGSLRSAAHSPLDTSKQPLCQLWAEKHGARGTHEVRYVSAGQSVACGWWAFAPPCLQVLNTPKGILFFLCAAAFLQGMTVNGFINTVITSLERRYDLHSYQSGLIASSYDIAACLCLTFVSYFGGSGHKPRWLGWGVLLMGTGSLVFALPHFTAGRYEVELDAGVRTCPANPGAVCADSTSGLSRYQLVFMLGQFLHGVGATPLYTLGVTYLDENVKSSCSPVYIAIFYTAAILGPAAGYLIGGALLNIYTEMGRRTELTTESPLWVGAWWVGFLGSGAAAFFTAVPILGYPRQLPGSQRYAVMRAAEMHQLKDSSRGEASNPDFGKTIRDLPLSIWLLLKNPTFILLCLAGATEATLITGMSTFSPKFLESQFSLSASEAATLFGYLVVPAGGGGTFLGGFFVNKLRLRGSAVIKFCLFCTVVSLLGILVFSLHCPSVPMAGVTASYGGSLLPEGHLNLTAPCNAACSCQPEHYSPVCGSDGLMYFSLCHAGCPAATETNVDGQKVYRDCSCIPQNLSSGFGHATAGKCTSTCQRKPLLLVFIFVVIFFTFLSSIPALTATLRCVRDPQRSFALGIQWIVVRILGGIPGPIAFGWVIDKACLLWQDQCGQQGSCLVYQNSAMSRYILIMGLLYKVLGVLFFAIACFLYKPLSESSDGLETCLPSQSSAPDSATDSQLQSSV

[2] = target: T1, Solute carrier organic anion transporter family member 4A1; test: TP_TRANSPORTER: inhibition of T3 uptake (T3: 1 uM, T4: 100 uM) in Xenopus laevis oocytes; assay type: functional, cell-based; details: oocyte
[3] = target: T2, Solute carrier organic anion transporter family member 1A2 (OATP1A2, SLCO1A2) (Homo sapiens, UniProt P46721); test: as §1; details: Xenopus laevis oocytes expressing the transporter
T2 sequence (P46721 whole entry): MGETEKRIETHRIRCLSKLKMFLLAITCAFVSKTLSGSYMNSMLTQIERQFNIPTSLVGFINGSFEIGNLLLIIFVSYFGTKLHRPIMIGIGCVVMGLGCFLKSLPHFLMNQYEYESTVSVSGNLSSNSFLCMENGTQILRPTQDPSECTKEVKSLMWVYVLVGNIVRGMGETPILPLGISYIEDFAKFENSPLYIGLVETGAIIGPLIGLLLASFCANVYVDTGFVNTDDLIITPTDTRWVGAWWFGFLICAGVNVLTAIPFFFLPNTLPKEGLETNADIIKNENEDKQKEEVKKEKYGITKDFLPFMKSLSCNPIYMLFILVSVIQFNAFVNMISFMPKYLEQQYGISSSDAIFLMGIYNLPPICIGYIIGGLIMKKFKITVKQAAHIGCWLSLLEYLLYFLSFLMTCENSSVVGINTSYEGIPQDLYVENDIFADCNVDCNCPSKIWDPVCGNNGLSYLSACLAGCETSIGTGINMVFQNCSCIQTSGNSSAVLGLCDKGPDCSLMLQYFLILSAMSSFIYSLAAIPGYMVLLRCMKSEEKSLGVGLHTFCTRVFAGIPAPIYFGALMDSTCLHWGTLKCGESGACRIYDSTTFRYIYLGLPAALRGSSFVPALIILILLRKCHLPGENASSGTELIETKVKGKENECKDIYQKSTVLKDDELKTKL

[4] = target: T1, Solute carrier organic anion transporter family member 4A1; test: TP_TRANSPORTER: inhibition of Taurocholate uptake (Taurochorate: 5 uM, T3: 50 uM) in Xenopus laevis oocytes; assay type: functional, cell-based; details: oocyte
[5] = target: T1, Solute carrier organic anion transporter family member 4A1; test: TP_TRANSPORTER: inhibition of Taurocholate uptake (Taurochorate: 5 uM, BSP: 50 uM) in Xenopus laevis oocytes; assay type: functional, cell-based; details: oocyte
[6] = substrate: N[C@@H](Cc1cc(I)c(Oc2ccc(O)c(I)c2)c(I)c1)C(=O)O; test: as §1; assay type: functional, cell-based, Oocyte

Activity [1]: substrate [+]
Km [3]: 8 µM
Molecule: N[C@@H](Cc1cc(I)c(Oc2cc(I)c(O)c(I)c2)c(I)c1)C(=O)O [LEVOTHYROXINE]
Activity [2]: inhibitor [(at a rough estimate) 15 % of control]

Molecule: N[C@@H](Cc1cc(I)c(Oc2ccc(O)c(I)c2)c(I)c1)C(=O)O [LIOTHYRONINE]
Activity [4]: inhibitor [(at a rough estimate) 30 % of control]

Molecule: N[C@@H](Cc1ccc(Oc2cc(I)c(O)c(I)c2)c(I)c1)C(=O)O [REVERSE TRIIODOTHYRONINE]
Activity [1]: substrate [+]

Molecule: O=C1OC(c2ccc(O)c(S(=O)(=O)[O-])c2)(c2ccc(O)c(S(=O)(=O)[O-])c2)c2c(Br)c(Br)c(Br)c(Br)c21.[Na+].[Na+] [SULFOBROMOPHTHALEIN SODIUM]
Activity [5]: inhibitor [(at a rough estimate) 15 % of control]

B1: Solute carrier organic anion transporter family member 4A1 (Homo sapiens) (protein)
chain: T1 sequence (Q96BD0 whole entry)
Km [6]: 0.9 µM
